A word on the inhibition: it is the drop in the measured response relative to a control, in per cent.

Counter-ions that a name gives are not always drawn. Marks after values point to notes of the source that are not given here.

The target in test [1] is T1, 5-HT2B receptor (Homo sapiens, UniProt P41595).
T1 construct: host or cells: CHO-K1
The experiment in a line: 5-HT2B receptor binding, ligand displacement assay with 3H-LSD radioligand. The settings on record: human receptor in CHO-K1; for inhibition at 0.001 µM: 1 nM compound; for inhibition at 0.01 µM: 10 nM compound; for inhibition at 0.1 µM: 100 nM compound. The method, then:
5-HT2B receptor binding (performed at Eurofins Panlabs Taiwan, Ltd.) to human receptor protein expressed in CHO-K1 cells was determined in a ligand displacement assay using ^3H-lysergic acid diethylamide (LSD) as radioligand and ketanserine as a standard reference compound, or alternatively*, with ^3H-mesulergine and SB 206553 as reference. Data is presented as % displacement of radioligand at indicated compound concentrations, see Table 1.

For test [2], the target named is T1, 5-HT2B receptor. The experiment in a line: 5-HT2B receptor antagonism, inhibition of 5-HT stimulated IP-1 accumulation (HTRF) in CHO-K1 cells. The conditions noted are these: 5-HT (5 nM) stimulated IP-1 accumulation; for inhibition at 0.001 µM: 1 nM compound; for inhibition at 0.01 µM: 10 nM compound; for inhibition at 0.1 µM: 100 nM compound; for inhibition at 1 µM: 1000 nM compound. The test is classed as cell-based. Here is the method:
(§1) 5-HT2B receptor antagonism (performed at Eurofins Panlabs Taiwan, Ltd.) was determined in CHO-K1 cells expressing human receptor protein as inhibition of 5-HT (5 nM) stimulated IP-1 accumulation measured by HTRF quantitation. SB 206553 was used as a standard reference compound. The antagonistic response is expressed as % inhibition of the 5-HT induced effect, see Table 2.
(Time-resolved FRET reads energy transfer from a long-lived donor to a nearby acceptor.)

Test [3] addresses T1, 5-HT2B receptor. The experiment in a line: 5-HT2B receptor agonism, IP-1 accumulation in CHO-K1 cells without prior 5-HT stimulation. Type of test: cell-based. The settings on record: % of IP-1 accumulation induced by 5-HT (1 uM); for 5-HT2B receptor agonism (% of positive control) 1 nM: 1 nM compound; for 5-HT2B receptor agonism (% of positive control) 10 nM: 10 nM compound; for 5-HT2B receptor agonism (% of positive control) 100 nM: 100 nM compound; for 5-HT2B receptor agonism (% of positive control) 1000 nM: 1000 nM compound. Here is the method:
as §1
5-HT2B receptor agonism (performed at Eurofins Panlabs Taiwan, Ltd.) was determined in the same model as described above in Example 50 without prior stimulation with 5-HT. The agonistic response is expressed as % of the IP-1 accumulation induced by 5-HT (1 uM) stimulation, see Table 3.

Test [4] relates to bleomycin-induced dermal fibrosis. The experiment in a line: Anti-fibrotic effects in bleomycin-induced dermal fibrosis in mice. Type of test: in vivo, female DBA/2 mice. Here is the method:
Skin fibrosis was induced in female DBA/2 mice by subcutaneous injections of bleomycin (2.5 mg/kg) every other day for three or six weeks.
For preventive treatment, mice were challenged with bleomycin for three weeks and treatment by oral gavage was established simultaneously. For therapeutic treatment, fibrosis was first induced by injections of bleomycin for three weeks in the absence of treatment. Thereafter, treatment by oral gavage was initiated, while injections of bleomycin were continued. The outcome was analyzed three or six weeks after the first injection of bleomycin for preventive and therapeutic treatment, respectively. Mice injected with 0.9% NaCl, the vehicle of bleomycin, served as non-fibrotic controls and mice treated with ddH2O (the vehicle for test compound) by oral gavage served as negative controls.
Groups 1-8 of n=8 Female DBA/2 Mice: Preventive dosing 3 weeks in total 1. 0.9% NaCl (injection) and ddH2O (orally) week 1-3. 2. Bleomycin (injection) and ddH2O (orally) week 1-3. 3. Bleomycin (injection) and test compound (10 mg/kg, qd, orally) week 1-3. Therapeutic dosing 6 weeks in total 4. 0.9% NaCl (injection) week 1-6 and ddH2O (orally) week 4-6. 5. Bleomycin (injection) week 1-3, 0.9% NaCl (injection) week 4-6, and ddH2O (orally) week 4-6. 6. Bleomycin (injection) week 1-6 and ddH2O (orally) week 4-6. 7. Bleomycin (injection) week 1-6 and test compound (1 mg/kg, qd, orally) week 4-6. 8. Bleomycin (injection) week 1-6 and test compound (10 mg/kg, qd, orally) week 4-6.
Defined areas of the skin of the upper back were excised, subsequently fixed in 4% formalin for 6 h and embedded in paraffin. Skin sections were cut and stained with hematoxylin/eosin. The dermal thickness (measured as distance between the epidermal-dermal border to the dermal-subcutaneous border in arbitrary units) was quantified in 4 different sections from different sites with 2 measurements per section. The analysis was performed in a blinded manner.
Myofibroblasts are characterized by the expression of α-smooth muscle actin (αSMA). Fibroblasts positive for αSMA were detected in paraffin-embedded slides from the upper back by incubation with monoclonal anti-αSMA antibodies (clone 1A4, Sigma-Aldrich, Steinheim, Germany). The expression was visualized with horseradish peroxidase labeled secondary antibodies and 3,3-diaminobenzidine tetrahydrochloride (DAB) (Sigma-Aldrich). Monoclonal mouse IgG antibodies (Calbiochem, San Diego, Calif., USA) were used for controls. The analysis was performed by a blinded reviewer evaluating the myofibroblasts in four sections per sample.
The amount of collagen protein (ug/mL) in skin samples was determined via hydroxyproline assay. After digestion of full skin thickness punch biopsies (Ø 3 mm) derived from the upper back in 6 M HCl for three hours at 120° C., the pH of the samples was adjusted to 6 with 6 M NaOH. Afterwards, 0.06 M chloramine T was added to each sample and incubated for 20 m at room temperature. Next, 3.15 M perchloric acid and 20% p-dimethylaminobenzaldehyde were added and samples were incubated for additional 20 min at 60° C. The absorbance was determined at 557 nm with a Spectra MAX 190 microplate spectrophotometer using a standard curve generated with purified type I collagen (Sigma-Aldrich).
All data are presented as group mean values (±SEM), and differences between the groups were tested for their statistical significance by Mann-Whitney U non-parametric test for non-related samples. P-values less than 0.05 were considered significant.

Setting [5] is: Preventive dosing, Group 3: 10 mg/kg qd orally week 1-3, mean (SEM), p < 0.001 vs group 2.
The mark [6] stands for this setting: Therapeutic dosing, Group 7: 1 mg/kg qd orally week 4-6, mean (SEM).
Where [7] appears, read: Therapeutic dosing, Group 8: 10 mg/kg qd orally week 4-6, mean (SEM).
[8] abbreviates: preventive and therapeutic treatment, compared to vehicle-treated, bleomycin-challenged mice.

T1 sequence (P41595 whole entry): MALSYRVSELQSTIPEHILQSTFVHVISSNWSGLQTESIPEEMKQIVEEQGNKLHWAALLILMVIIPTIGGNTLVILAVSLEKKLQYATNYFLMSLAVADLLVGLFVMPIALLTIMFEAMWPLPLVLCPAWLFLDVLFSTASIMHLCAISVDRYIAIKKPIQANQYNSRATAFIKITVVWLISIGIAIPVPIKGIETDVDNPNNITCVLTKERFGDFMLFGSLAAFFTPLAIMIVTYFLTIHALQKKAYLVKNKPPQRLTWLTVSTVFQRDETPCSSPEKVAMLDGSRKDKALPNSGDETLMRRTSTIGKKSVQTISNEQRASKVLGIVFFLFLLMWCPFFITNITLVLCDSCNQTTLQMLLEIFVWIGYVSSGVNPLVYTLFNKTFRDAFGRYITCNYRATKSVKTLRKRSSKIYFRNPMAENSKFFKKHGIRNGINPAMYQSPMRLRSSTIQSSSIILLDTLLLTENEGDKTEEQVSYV

In the case of `CC1CN(C(=N)N)c2ccc3c(Cl)cccc3c21.Cl` (centres unmarked) [Example 11, 6-Chloro-1-methyl-1,2-dihydro-3H-benzo[e]indole-3-carboximidamide hydrochloride], at 5-HT2B receptor [1], the inhibition at 0.001 µM was determined as 63%, the inhibition at 0.01 µM came out at 97% and the inhibition at 0.1 µM amounted to 103%. Besides, at 5-HT2B receptor [2], the inhibition at 0.001 µM came to 53%, the inhibition at 0.01 µM amounted to 89%, the inhibition at 0.1 µM is 99% and the inhibition at 1 µM was found to be 96%. Besides, at 5-HT2B receptor [3], the “5-HT2B receptor agonism (% of positive control) 1 nM” value came out at 1%, the “5-HT2B receptor agonism (% of positive control) 10 nM” value was 5%, the “5-HT2B receptor agonism (% of positive control) 100 nM” value was −2% and the “5-HT2B receptor agonism (% of positive control) 1000 nM” value stood at 1%.

`CC1CN(C(=N)N)c2ccc3cc(F)ccc3c21.Cl` (centres unmarked) [Example 1, 7-Fluoro-1-methyl-1,2-dihydro-3H-benzo[e]indole-3-carboximidamide hydrochloride]: on 5-HT2B receptor [1], the inhibition at 0.001 µM worked out at 9%, the inhibition at 0.01 µM came to 49% and the inhibition at 0.1 µM turned out to be 88%. In addition, at 5-HT2B receptor [2], the inhibition at 0.001 µM is 2%, the inhibition at 0.01 µM came out at 14%, the inhibition at 0.1 µM turned out to be 80% and the inhibition at 1 µM worked out at 97%. For the same compound, at 5-HT2B receptor [3], the “5-HT2B receptor agonism (% of positive control) 1 nM” value is listed as −1%, the “5-HT2B receptor agonism (% of positive control) 10 nM” value is listed as 2%, the “5-HT2B receptor agonism (% of positive control) 100 nM” value is on record as 7% and the “5-HT2B receptor agonism (% of positive control) 1000 nM” value amounted to 0%.

Take `CC1CN(C(=N)N)c2ccc3c(Br)cccc3c21.Cl` (centres unmarked) [Example 2, 6-Bromo-1-methyl-1,2-dihydro-3H-benzo[e]indole-3-carboximidamide hydrochloride]: at 5-HT2B receptor [1], the inhibition at 0.001 µM worked out at 72%, the inhibition at 0.01 µM was determined as 96% and the inhibition at 0.1 µM amounted to 98%. At 5-HT2B receptor [2], the inhibition at 0.001 µM stood at 56%, the inhibition at 0.01 µM came out at 91%, the inhibition at 0.1 µM worked out at 95% and the inhibition at 1 µM turned out to be 96%. Further, on 5-HT2B receptor [3], the “5-HT2B receptor agonism (% of positive control) 1 nM” value is −3%, the “5-HT2B receptor agonism (% of positive control) 10 nM” value is −5%, the “5-HT2B receptor agonism (% of positive control) 100 nM” value is −3% and the “5-HT2B receptor agonism (% of positive control) 1000 nM” value is recorded as −4%.

Turning to `CC1CN(C(=N)N)c2ccc3ccccc3c21.Cl` (centres unmarked) [Example 3, 1-Methyl-1,2-dihydro-3H-benzo[e]indole-3-carboximidamide hydrochloride], at 5-HT2B receptor [1], the inhibition at 0.01 µM amounted to 63% and the inhibition at 0.1 µM was determined as 90%. Further, at 5-HT2B receptor [2], the inhibition at 0.001 µM was determined as 2%, the inhibition at 0.01 µM was 50% and the inhibition at 0.1 µM is 100%. Also, in test [4] (setting [5]), the “Dermal thickness (arbitrary units)” value was 3.52 (0.05) *** arbitrary units, the “Hydroxyproline (ug/mL)” value is recorded as 3.44 (0.11) *** ug/mL and the Myofibroblast counts is 1.31 (0.06) ***. In test [4] (setting [6]), the “Dermal thickness (arbitrary units)” value is listed as 3.96 (0.06) ^++### arbitrary units, the “Hydroxyproline (ug/mL)” value is recorded as 3.85 (0.12) ^## ug/mL and the Myofibroblast counts is listed as 1.72 (0.07) ^+###. Besides, in test [4] (setting [7]), the “Dermal thickness (arbitrary units)” value is 3.56 (0.04) ^+++### arbitrary units, the “Hydroxyproline (ug/mL)” value was 3.58 (0.09) ^++### ug/mL and the Myofibroblast counts was 1.41 (0.07) ^++###. In test [4] (setting [8]), the Myofibroblast counts entry was “significantly reduced”, the hydroxyproline content result is “significantly reduced” and the hypodermal thickening entry is “significantly reduced”. In addition, the “antifibrotic effect, 10 mg/kg/qd compared to 1 mg/kg/qd” value in test [4] (therapeutic regimen) was “more potent antifibrotic effect”. For the same compound, on 5-HT2B receptor [3], the “5-HT2B receptor agonism (% of positive control) 1 nM” value is −3%, the “5-HT2B receptor agonism (% of positive control) 10 nM” value came out at 0% and the “5-HT2B receptor agonism (% of positive control) 100 nM” value was −3%.

On to `CC1CN(C(=N)N)c2ccc3c(F)cccc3c21` (centres unmarked) [Example 33, 6-Fluoro-1-methyl-1,2-dihydro-3H-benzo[e]indole-3-carboximidamide 2,2,2-trifluoroacetic acid salt], for which, on 5-HT2B receptor [1], the inhibition at 0.001 µM amounted to 28%, the inhibition at 0.01 µM amounted to 82% and the inhibition at 0.1 µM came to 101%. Moreover, at 5-HT2B receptor [2], the inhibition at 0.001 µM was 29%, the inhibition at 0.01 µM amounted to 81%, the inhibition at 0.1 µM was 99% and the inhibition at 1 µM was found to be 100%. In addition, on 5-HT2B receptor [3], the “5-HT2B receptor agonism (% of positive control) 1 nM” value is −1%, the “5-HT2B receptor agonism (% of positive control) 10 nM” value is 4%, the “5-HT2B receptor agonism (% of positive control) 100 nM” value is listed as 26% and the “5-HT2B receptor agonism (% of positive control) 1000 nM” value is −1%.

Values taken from patent US20220267268A1, “NEW TRICYCLIC 5-HT2 ANTAGONISTS” (Anamar AB, priority 2019, published 2022).
